What all share (format): cell-based
One experiment concerns HEK-293. Nature of the experiment: CellTiter-Glo 2.0 cell viability assay, HEK-293. The conditions noted are these: Homo sapiens, HEK293, 48 h; CellTiter-Glo 2.0, HEK-293, 2-day incubation.
The test system of a further experiment is HepG2. In words: CCK-8 cell viability assay, HepG2. The conditions noted are these: Homo sapiens; CCK-8, HepG2, 2-day or 3-day incubation, cytotoxic effect. In general terms: Tetrazolium assays rely on reduction of a dye to a coloured formazan, in cell work by metabolically active cells.
For the next experiment, the system named is MYC RNA. Nature of the experiment: RT-qPCR of MYC RNA in human cancer cell lines. The conditions noted are these: 24 h, about 1 μM, 1-day incubation, e.g., A549, HepG2, beta-actin normalized, vs DMSO, read-out: % reduction of MYC RNA. On the procedure:
The level of reduction of MYC RNA following treatment with test compounds is assessed using RT-qPCR according to the following protocol. The human cancer cell lines (e.g., A549, HepG2) are seeded at 20,000 cells per well in a 96-well plate. After 1 day, the cells are treated with test compounds at a final concentration of about 1 μM. After a 1-day incubation period, the supernatant is removed from the wells and lysis solution from the Cells-to-CT 1-Step Power SYBR Green Kit (Invitrogen A25599) is added to create cell lysates, according to the kit manufacturer's protocol. The kit manufacturer's protocol is then followed to perform RT-qPCR for each sample using a pair of MYC-specific primers (e.g., SEQ ID NO: 4 and SEQ ID NO: 5) to detect MYC RNA, as well as a pair of beta-actin-specific primers (e.g., SEQ ID NO: 6 and SEQ ID NO: 7) to detect beta-actin RNA, which serves as a loading control. The relative expression levels of MYC and beta-actin RNAs are calculated using a standard curve generated from a dilution series of untreated cell lysates. The normalized level of MYC RNA following treatment with a test compound is calculated by dividing the relative expression level of MYC in the sample by the relative expression level of beta actin in the same sample. The value so obtained is presented as a percentage of that of the no-compound, solvent only (DMSO)-treated sample. A lower percentage of MYC RNA in a sample with respect to the DMSO-treated sample indicates greater percentage reduction in MYC RNA levels due to the test compound, and vice versa.

Molecules are shown by their SMILES.

Here are results for one compound from patent US20250368623A1, “PYRIDAZINONE-DERIVED COMPOUNDS FOR THE MODULATION OF MYC AND FOR MEDICAL USES” (GENETIC INTELLIGENCE, INC, priority 2022, published 2025).

Description for HEK-293: The effect of test compounds on cell viability is also determined using the CellTiter-Glo 2.0 assay kit (Promega G9241) according to the following protocol. The human cancer cell line (e.g., HepG2) and a non-cancer human cell line (e.g., HEK-293), are seeded at 20,000 cells per well in a 96-well plate. After 1 day, the cells are treated with test compounds at various concentrations (e.g., 10 nM, 31.6 nM, 100 nM, 316 nM, 1 μM, 3.16 μM, 10 μM, 20 μM, etc.). After a 2-day incubation period, the CellTiter-Glo 2.0 assay is performed according to the kit manufacturer's protocol. […] The contents are mixed for 2 minutes on an orbital shaker to induce cell lysis, and incubated for 10 minutes at room temperature, following which the luminescent signal is measured using a microplate reader. […] The cytotoxic effect of test compounds at different concentrations is calculated by subtracting from 1 the ratio of the luminescence signal of the compound-treated sample to that of the no-compound, solvent only (DMSO)-treated sample. […] The IC50 values for the cytotoxic effect of each test compound in HepG2 cells are determined by plotting a dose-response curve to calculate the concentration of test compound that produces half of the maximum cytotoxic effect. […]
Description for HepG2: The effect of test compounds on cell viability is determined using the CCK-8 assay kit (Dojindo CK04-1000) according to the following protocol. The human cancer cell lines (e.g., A549, HepG2, JeKo-1, MDA-MB-231, etc.) and non-cancer human cell lines (e.g., HEK-293, HaCaT, etc.), are seeded at 20,000 cells per well in a 96-well plate. After 1 day, the cells are treated with test compounds at various final concentrations (e.g., 10 nM, 31.6 nM, 100 nM, 316 nM, 1 μM, 3.16 μM, 10 μM, 20 μM, etc.). After a 2-day or 3-day incubation period, 10 μL of CCK-8 solution, which contains the WST-8 dye, is added to each well according to the kit manufacturer's protocol. After incubation for 1-4 hours, the absorbance at 450 nm is measured using a microplate reader. The absorbance at 450 nm measures the amount of WST-8 that is reduced to WST-8 formazan by cellular dehydrogenases, which is directly proportional to the number of living cells. The cytotoxic effect of test compounds at different concentrations is calculated by subtracting from 1 the ratio of absorbance of the compound-treated sample at 450 nm to that of the no-compound, solvent only (DMSO)-treated sample. […] The IC50 values for the cytotoxic effect of each test compound in A549, HepG2, JeKo-1, and/or MDA-MB-231 cells are determined by plotting a dose-response curve to calculate the concentration of test compound that produces half of the maximum cytotoxic effect.

As usually defined, the IC50 is the concentration needed to halve the response being measured. Regarding `Cc1nc(C)c(-c2ccc(=O)n(CC3CCN(c4ncnc5ncccc45)CC3)n2)s1` [6-(2,4-dimethylthiazol-5-yl)-2-((1-(pyrido[2,3-d]pyrimidin-4-yl)piperidin-4-yl)methyl)pyridazin-3(2H)-one], the IC50 with HEK-293 worked out at 72.9 µM; in the experiment on HepG2, 0.3 µM. Moreover, in the experiment on MYC RNA, the inhibition at 1 µM worked out at 45%.
